Assay results as given in ChEMBL document CHEMBL5715936, “Selective Itk inhibitors block T-cell activation and murine lung inflammation” (Biochemistry, 2004).
Calls of active or inactive are those of the source. The rule behind the calls is not given here.

What was measured:
[1] = target: Tyrosine-protein kinase Lck (Homo sapiens, UniProt P06239); experiment: Inhibition of Lck (unknown origin) using GST-SLP-76 as peptide substrate incubated for 10 mins in presence of [gamma-33P]ATP by scintillation counter assay
[2] = target: T1, Tyrosine-protein kinase ITK/TSK (Homo sapiens) (UniProt Q08881); experiment: Inhibition of Itk in EGF-stimulated human A549 cells assessed as reduction in tyrosine phosphorylation at <=10 uM incubated for 20 mins by Western blotting analysis; format: cell-based
T1 sequence (whole entry): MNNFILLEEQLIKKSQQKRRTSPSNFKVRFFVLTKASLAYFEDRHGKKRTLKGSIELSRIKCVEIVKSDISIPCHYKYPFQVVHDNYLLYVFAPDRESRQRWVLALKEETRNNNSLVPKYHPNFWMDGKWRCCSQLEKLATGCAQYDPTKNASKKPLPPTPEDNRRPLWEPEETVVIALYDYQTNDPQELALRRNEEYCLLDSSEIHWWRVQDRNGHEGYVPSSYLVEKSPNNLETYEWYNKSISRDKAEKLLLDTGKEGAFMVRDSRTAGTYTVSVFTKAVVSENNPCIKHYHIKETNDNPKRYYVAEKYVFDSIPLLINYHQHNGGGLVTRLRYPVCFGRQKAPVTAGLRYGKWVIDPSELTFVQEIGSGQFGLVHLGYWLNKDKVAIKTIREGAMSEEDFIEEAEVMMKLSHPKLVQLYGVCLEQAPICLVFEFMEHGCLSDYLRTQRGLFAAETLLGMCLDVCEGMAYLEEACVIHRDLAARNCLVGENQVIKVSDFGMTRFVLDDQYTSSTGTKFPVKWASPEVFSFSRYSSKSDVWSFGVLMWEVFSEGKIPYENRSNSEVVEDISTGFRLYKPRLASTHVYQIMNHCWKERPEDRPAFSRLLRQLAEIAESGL

[3] = target: T2, Tyrosine-protein kinase ZAP-70 (Homo sapiens, UniProt P43403); experiment: Inhibition of ZAP-70 (unknown origin) using GST-SLP-76 as peptide substrate incubated for 10 mins in presence of [gamma-33P]ATP by scintillation counter assay
T2 sequence (P43403 whole entry): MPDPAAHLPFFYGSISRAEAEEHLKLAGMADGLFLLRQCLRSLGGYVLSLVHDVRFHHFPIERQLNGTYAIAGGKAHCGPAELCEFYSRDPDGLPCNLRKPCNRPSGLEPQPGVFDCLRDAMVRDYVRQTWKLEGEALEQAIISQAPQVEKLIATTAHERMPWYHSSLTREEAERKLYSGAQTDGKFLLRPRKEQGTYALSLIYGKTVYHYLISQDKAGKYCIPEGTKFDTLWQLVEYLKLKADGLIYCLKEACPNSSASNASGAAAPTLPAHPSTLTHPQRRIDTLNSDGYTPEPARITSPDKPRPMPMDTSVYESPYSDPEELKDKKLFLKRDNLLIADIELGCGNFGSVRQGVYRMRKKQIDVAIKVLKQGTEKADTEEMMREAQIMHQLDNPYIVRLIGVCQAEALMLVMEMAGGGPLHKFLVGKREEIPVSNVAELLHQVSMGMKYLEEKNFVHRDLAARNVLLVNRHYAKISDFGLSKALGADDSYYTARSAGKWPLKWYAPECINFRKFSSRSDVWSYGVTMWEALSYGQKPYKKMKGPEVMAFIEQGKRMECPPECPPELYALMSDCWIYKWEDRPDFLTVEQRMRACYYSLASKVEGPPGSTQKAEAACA

[4] = target: T3, Cytoplasmic tyrosine-protein kinase BMX (Homo sapiens, UniProt P51813); experiment: Inhibition of Bmx (unknown origin) using GST-SLP-76 as peptide substrate incubated for 10 mins in presence of [gamma-33P]ATP by scintillation counter assay
T3 sequence (P51813 whole entry): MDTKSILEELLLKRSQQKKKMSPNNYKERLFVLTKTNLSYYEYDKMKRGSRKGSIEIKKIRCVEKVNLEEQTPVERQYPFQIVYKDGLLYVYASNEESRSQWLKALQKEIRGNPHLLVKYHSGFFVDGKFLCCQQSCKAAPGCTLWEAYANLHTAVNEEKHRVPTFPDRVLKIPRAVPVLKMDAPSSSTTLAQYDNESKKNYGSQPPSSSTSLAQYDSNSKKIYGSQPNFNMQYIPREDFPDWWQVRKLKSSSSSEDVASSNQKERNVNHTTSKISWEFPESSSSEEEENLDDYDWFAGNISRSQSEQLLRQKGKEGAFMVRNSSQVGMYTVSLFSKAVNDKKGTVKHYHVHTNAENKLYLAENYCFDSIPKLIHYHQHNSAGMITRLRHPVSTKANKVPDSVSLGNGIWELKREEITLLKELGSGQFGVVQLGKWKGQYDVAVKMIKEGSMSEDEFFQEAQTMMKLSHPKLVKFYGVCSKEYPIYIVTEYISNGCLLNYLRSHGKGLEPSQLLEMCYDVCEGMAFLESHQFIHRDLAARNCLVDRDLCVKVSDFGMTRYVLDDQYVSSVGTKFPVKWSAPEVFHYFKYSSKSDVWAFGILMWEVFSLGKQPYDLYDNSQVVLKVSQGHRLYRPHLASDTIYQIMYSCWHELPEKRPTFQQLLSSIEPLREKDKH

[5] = target: RAC-alpha serine/threonine-protein kinase (Homo sapiens, UniProt P31749); experiment: Inhibition of Akt1 (unknown origin) using GST-SLP-76 as peptide substrate incubated for 10 mins in presence of [gamma-33P]ATP by scintillation counter assay
[6] = target: Mitogen-activated protein kinase 3 (Homo sapiens, UniProt P27361); experiment: Inhibition of ERK-1 (unknown origin) using GST-SLP-76 as peptide substrate incubated for 10 mins in presence of [gamma-33P]ATP by scintillation counter assay
[7] = target: T4, Tyrosine-protein kinase TXK (Homo sapiens, UniProt P42681); experiment: Inhibition of Txk (unknown origin) using GST-SLP-76 as peptide substrate incubated for 10 mins in presence of [gamma-33P]ATP by scintillation counter assay
T4 sequence (P42681 whole entry): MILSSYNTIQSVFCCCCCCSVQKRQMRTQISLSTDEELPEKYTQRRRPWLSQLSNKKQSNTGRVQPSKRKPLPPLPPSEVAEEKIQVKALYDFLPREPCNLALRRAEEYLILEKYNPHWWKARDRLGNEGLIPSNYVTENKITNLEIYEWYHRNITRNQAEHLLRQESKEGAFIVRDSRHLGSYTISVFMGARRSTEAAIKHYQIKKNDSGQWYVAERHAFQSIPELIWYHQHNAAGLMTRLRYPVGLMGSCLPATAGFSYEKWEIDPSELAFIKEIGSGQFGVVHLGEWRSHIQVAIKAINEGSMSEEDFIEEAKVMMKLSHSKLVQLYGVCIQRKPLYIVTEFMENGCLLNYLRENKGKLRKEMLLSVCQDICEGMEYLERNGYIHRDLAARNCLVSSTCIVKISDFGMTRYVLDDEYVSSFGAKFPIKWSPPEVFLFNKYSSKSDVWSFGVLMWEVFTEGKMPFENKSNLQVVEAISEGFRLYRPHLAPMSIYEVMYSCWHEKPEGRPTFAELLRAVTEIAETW

Sequence of Mitogen-activated protein kinase 3 (P27361 whole entry): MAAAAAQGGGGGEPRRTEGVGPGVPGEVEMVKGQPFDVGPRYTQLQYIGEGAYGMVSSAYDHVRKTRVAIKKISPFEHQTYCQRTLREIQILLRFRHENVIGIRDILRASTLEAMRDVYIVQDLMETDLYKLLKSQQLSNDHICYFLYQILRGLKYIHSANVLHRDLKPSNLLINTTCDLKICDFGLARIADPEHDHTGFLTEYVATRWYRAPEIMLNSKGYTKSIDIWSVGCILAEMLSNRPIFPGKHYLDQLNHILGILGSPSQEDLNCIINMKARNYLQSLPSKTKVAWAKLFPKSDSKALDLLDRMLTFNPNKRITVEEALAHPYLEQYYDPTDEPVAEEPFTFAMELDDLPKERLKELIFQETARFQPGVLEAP
Sequence of RAC-alpha serine/threonine-protein kinase (P31749 whole entry): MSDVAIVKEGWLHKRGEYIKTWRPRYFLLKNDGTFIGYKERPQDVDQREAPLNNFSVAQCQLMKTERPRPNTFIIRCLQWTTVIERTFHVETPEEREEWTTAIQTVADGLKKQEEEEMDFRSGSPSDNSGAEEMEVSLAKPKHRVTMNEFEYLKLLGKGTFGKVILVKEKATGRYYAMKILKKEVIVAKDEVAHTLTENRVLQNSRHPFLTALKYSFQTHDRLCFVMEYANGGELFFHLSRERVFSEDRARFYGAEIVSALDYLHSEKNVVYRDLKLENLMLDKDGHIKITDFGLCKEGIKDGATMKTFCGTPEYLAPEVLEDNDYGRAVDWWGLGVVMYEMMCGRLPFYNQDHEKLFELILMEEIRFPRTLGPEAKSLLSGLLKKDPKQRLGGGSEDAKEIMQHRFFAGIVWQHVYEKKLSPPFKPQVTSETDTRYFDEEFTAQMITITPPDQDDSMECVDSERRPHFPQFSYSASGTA
Sequence of Tyrosine-protein kinase Lck (P06239 whole entry): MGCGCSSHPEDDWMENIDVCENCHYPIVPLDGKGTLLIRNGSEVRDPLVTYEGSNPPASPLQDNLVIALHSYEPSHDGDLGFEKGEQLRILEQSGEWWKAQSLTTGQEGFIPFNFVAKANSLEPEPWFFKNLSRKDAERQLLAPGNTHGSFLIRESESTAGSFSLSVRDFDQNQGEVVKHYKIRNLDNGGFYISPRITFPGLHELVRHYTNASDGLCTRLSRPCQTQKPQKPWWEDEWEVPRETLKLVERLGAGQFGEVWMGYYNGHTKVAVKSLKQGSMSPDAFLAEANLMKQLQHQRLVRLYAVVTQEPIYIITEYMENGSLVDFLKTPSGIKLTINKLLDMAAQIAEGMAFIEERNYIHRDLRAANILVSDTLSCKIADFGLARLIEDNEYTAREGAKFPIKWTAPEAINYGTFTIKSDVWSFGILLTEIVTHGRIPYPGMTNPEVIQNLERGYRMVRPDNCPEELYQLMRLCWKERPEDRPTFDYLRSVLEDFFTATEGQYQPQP

In the case of CC(=O)N1CCN(C(=O)c2cc(CSc3cnc(NC(=O)c4ccc(CNC(C)C(C)(C)C)cc4)s3)cc(C)c2C)CC1 (centres undefined), the IC50 [1] is reported as 27 µM, the inhibition [2] is reported as “Active” and the IC50 [3] is reported as greater than 50 µM. It also gave an IC50 [4] greater than 50 µM, an IC50 [5] greater than 50 µM and an IC50 [6] greater than 50 µM. The IC50 [7] was greater than 50 µM.

With COc1cc(C)c(Sc2cnc(NC(=O)c3ccc(CNC(C)C(C)(C)C)cc3)s2)cc1C(=O)N1CCN(C(C)=O)CC1 (centres undefined) the IC50 [1] was 2.4 µM, the inhibition [2] was “Active” and the IC50 [3] was greater than 50 µM. It also gave an IC50 [4] greater than 50 µM, an IC50 [5] greater than 50 µM and an IC50 [6] greater than 50 µM. It also gave an IC50 [7] of 11 µM.
